Experiments:
PDE III = target: T1, PDE III (Homo sapiens, UniProt Q14432); experiment: Type III PDE activity, hydrolysis of [3H]-cyclic AMP; assay type: biochemical; conditions: enzyme from human platelets; cyclic AMP 0.2 µM; 2.5% dimethyl sulfoxide
T1 construct: Fractions containing PDE III activity are pooled and dialyzed; from tissue; host or cells: human platelets (100,000 x g supernatant, DEAE-Trisacryl M fraction)
Method: The Type III PDE is isolated from human platelets using a procedure similar to that previously described by Weishaar, R.E.; Burrows, S.D.; Kobylarg, D.C., Quade, N.M.; Evans, D.B., Biochem. Pharmacol., 35:787, 1986. Briefly, 1-2 units of platelets are suspended in an equal volume of buffer (20 mM Tris-HCl, pH 7.5, containing 2 mM magnesium acetate, 1 mM dithiothreitol, and 5 mM Na2 EDTA). The protease inhibitor phenyl methyl-sulfonyl fluoride (PMSF) is also included in this buffer at a final concentration of 200 µM. The suspension is homogenized using a polytron and the homogenate centrifuged at 100,000 x g for 60 minutes. This and all subsequent procedures are performed at 0-4°C. The supernatant is then filtered through four layers of gauze and applied to a DEAE-Trisacryl M column, previously equilibrated with buffer B (20 mM Tris-HCl, pH 7.5, containing 1 mM magnesium acetate, 1 mM dithiothreitol and 200 µM PMSF). After application of the sample, the column is washed with several bed volumes of buffer B, after which the different forms of PDE are eluted from the column using two successive linear NaCl gradients (0.05-0.15 M, 300 ml total; 0.15-0.40 M, 200 ml total). Five milliliter fractions are collected and assayed for cyclic AMP and cyclic GMP PDE activity. Fractions containing PDE III activity are pooled and dialyzed overnight against 4 liters of buffer B. The dialyzed PDE III is then concentrated to 10% of the original volume, diluted to 50% with ethylene glycol monoethyl ether and stored at -20°C.
Enzyme activity is assessed by measuring the hydrolysis of [^3H]-cyclic AMP, as described by Thompson, W.J., Teraski, W.L., Epstein, P.N., Strada, S.J.: Adv. Cyclic Nucleotide Res. 10:69, 1979. The cyclic AMP concentration used in this assay is 0.2 µM, which approximates to the Km value. Protein concentration is adjusted to ensure that no more than 15% of the available substrate is hydrolyzed during the incubation period.
All test compounds are dissolved in dimethyl sulfoxide (final concentration of 2.5%).
The compounds are tested over concentration range: 0.1, 1, 10, 100 uM (n=1), and IC50 determinations are made using 5 appropriate concentrations (n=2).

PDE V = target: T2, PDE V (Homo sapiens, UniProt O76074); experiment: Type V PDE activity, hydrolysis of [3H]-cyclic GMP; assay type: biochemical; conditions: enzyme from platelets; cyclic GMP 0.2 uM; 2.5% dimethyl sulfoxide
T2 construct: from tissue; host or cells: platelets (supernatant, DEAE-Trisacryl M fraction)
Method: Briefly, 1-2 units of platelets are suspended in an equal volume of buffer A (20 mM Tris-HCl, pH 7.5, containing 2 mM magnesium acetate, 1 mM dithiothreitol, and 5 mM Na2EDTA) using a polytron. The proteinase inhibitor phenylmethylsulfonyl fluoride (PMSF) are also included in this buffer at a final concentration of 200 uM. This and all subsequent procedures are performed at 0-4°C. The homogenate is then centrifuged at […] for 60 minutes. The supernatant is then removed and filtered through four layers of gauze and applied to a DEAE-Trisacryl M column. The column is washed with several bed volumes of buffer B (20 mM Tris-HCl, pH 7.5, containing 2 mM magnesium acetate, 1 mM diothiothreitol, and […] PMSF) and eluted by two successive linear NaCl gradients (0.05-0.15 M, 300 ml total; 0.15-0.40 M, 200 ml total). Five ml fractions are collected and assayed for cyclic AMP and cyclic GMP PDE activity. Fractions that contain PDE V are pooled and dialyzed overnight against 4 L of buffer C (20 mM Tris-HCl, pH 7.5, containing 2 mM magnesium acetate and proteinase inhibitors). The dialyzed PDE V is then concentrated to 10% of the original volume, diluted to 50% with ethylene glycol monoethyl ether and stored at -20°C. PDE V can typically be retained for up to four weeks with little or no loss of activity.
The reference Type V PDE inhibitor zaprinast is evaluated with each assay.

T1 sequence (Q14432 whole entry): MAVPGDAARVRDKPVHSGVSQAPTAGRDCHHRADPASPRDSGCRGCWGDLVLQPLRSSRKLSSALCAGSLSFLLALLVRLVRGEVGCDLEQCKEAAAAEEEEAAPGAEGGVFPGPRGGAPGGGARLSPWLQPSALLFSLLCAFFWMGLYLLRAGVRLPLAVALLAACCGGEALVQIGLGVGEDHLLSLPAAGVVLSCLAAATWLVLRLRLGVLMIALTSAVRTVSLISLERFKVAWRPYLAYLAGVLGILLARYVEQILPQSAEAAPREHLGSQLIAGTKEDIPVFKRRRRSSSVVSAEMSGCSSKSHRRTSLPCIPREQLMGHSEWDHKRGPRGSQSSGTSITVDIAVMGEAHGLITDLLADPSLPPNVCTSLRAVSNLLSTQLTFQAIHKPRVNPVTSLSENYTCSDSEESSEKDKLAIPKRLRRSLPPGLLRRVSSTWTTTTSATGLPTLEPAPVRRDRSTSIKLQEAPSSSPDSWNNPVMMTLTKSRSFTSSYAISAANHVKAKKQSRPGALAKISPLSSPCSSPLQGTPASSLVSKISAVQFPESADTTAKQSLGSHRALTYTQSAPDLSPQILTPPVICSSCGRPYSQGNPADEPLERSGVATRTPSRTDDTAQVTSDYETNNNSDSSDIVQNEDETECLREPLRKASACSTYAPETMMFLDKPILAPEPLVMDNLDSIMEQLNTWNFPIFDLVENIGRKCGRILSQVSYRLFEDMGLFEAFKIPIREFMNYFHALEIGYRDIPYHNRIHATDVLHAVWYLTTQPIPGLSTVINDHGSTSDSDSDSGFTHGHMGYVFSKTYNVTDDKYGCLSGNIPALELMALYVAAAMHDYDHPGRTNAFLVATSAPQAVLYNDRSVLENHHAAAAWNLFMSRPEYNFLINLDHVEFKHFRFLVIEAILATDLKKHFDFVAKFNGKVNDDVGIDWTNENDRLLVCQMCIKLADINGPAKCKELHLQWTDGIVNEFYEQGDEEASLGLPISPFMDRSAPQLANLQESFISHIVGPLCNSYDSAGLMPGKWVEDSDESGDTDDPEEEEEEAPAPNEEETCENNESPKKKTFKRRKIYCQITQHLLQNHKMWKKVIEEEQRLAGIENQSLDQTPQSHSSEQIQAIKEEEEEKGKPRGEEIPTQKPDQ

Row | IC50 (PDE III) | IC50 (PDE V) | SMILES
1 | 620 µM |  | COc1ccc(C2CNC(=O)C2)cc1OC1CCCC1 (stereo not shown) [Rolipram, reference compound]
2 | > 300 µM | > 300 µM | CC(C)(C)c1cc(Cc2nc3cc(Cl)cc(C#Cc4nccs4)c3o2)cc(C(C)(C)C)c1O [Example 3, 5-chloro-2-(3,5-di-t-butyl-4-hydroxy-benzyl)-7-(2-(2-thiazolyl)-ethynyl)-benzoxazole]
3 | > 300 µM | > 300 µM | CC(C)(C)c1cc(Cc2nc3cc(Cl)cc(C#Cc4ccccn4)c3o2)cc(C(C)(C)C)c1O [Example 1, 5-chloro-2-(3,5-di-t-butyl-4-hydroxy-benzyl)-7-(2-(2-pyridyl)-ethynyl)-benzoxazole]

Row | SMILES | IC50 (PDE III) | IC50 (PDE V)
4 | CC(C)(C)c1cc(Cc2nc3cccc(C#Cc4ccccn4)c3o2)cc(C(C)(C)C)c1O [Example 2, 2-(3,5-di-t-butyl-4-hydroxy-benzyl)-7-(2-(2-pyridyl)-ethynyl)-benzoxazole] | > 300 µM | 35.1 µM

— patent EP1160247A1, “6,5-Fused aromatic ring systems having enhanced phosphodiesterae IV inhibitory activity” (Euro-Celtique S.A., priority 2000, dated 2001)
